Test results as given in patent publication US20060263802A1 (priority 2003, published 2006).

Legend:
Format in all cases: binding
[1] = test system: human monoclonal antibody CRJA
[2] = test system: human monoclonal antibody CRJB
[3] = test system: human monoclonal antibody CR57
[4] = test system: human monoclonal antibody CRJB; remark: listed apart in the source
[5] = test system: human monoclonal antibody CRJA; remark: listed apart in the source
[6] = test system: human monoclonal antibody CR57; remark: listed apart in the source

Row | Sequence | Binding of CRJA to linear peptide (PEPSCAN-ELISA signal) [1] | Binding of CRJB to linear peptide (PEPSCAN-ELISA signal) [2] | Binding of CR57 to linear peptide (PEPSCAN-ELISA signal) [3] | Binding of CRJB (10 μg/ml) to looped/cyclic peptide (PEPSCAN-ELISA) [4] | Binding of CRJA (10 μg/ml) to looped/cyclic peptide (PEPSCAN-ELISA) [5] | Binding of CR57 (10 μg/ml) to looped/cyclic peptide (PEPSCAN-ELISA) [6] | Binding of CRJB (10 μg/ml) to looped/cyclic peptide (PEPSCAN-ELISA signal) [4] | Binding of CRJA (10 μg/ml) to looped/cyclic peptide (PEPSCAN-ELISA signal) [5] | Binding of CR57 (10 μg/ml) to looped/cyclic peptide (PEPSCAN-ELISA signal) [6] | Binding of human monoclonal antibody CRJA to linear peptide (PEPSCAN-ELISA signal) [1] | Binding of human monoclonal antibody CRJB to linear peptide (PEPSCAN-ELISA signal) [2] | Binding of human monoclonal antibody CR57 to linear peptide (PEPSCAN-ELISA signal) [3] | Binding of CRJB to looped/cyclic peptide (PEPSCAN-ELISA signal) [4] | Binding of CRJA to looped/cyclic peptide (PEPSCAN-ELISA signal) [5] | Binding of CR57 to looped/cyclic peptide (PEPSCAN-ELISA signal) [6]
1 | KSVSFRRLSHLRKLV | 111 | 124 | 108 | 97 | 88 | 114 |  |  |  |  |  |  |  |  | 
2 | LRKLVPGFGKAYTIF | 116 | 118 | 83 | 105 | 87 | 92 |  |  |  |  |  |  |  |  | 
3 | NGIILGPDGNVLIPE | 89 | 146 | 102 | 85 | 85 | 104 |  |  |  |  |  |  |  |  | 
4 | VLIPEMQSSLLQQHM | 78 | 104 | 92 | 85 | 92 | 114 |  |  |  |  |  |  |  |  | 
5 | TLMEADAHYKSVRTW | 111 | 114 | 100 | 87 | 89 | 89 |  |  |  |  |  |  |  |  | 
6 | ENYTNFVGYVTTTFK | 80 | 112 | 44 |  |  |  | 80 | 58 | 60 |  |  |  |  |  | 
7 | GPDGNVLIPEMQSSL | 91 | 154 | 86 | 100 | 112 | 141 |  |  |  |  |  |  |  |  | 
8 | LPSKGCLRVGGRCHP | 58 | 119 | 77 | 85 | 52 | 80 |  |  |  |  |  |  |  |  | 
9 | KREECLDALESIMTT | 83 | 113 | 102 | 64 | 100 | 137 |  |  |  |  |  |  |  |  | 
10 | TWVAMQTSNETKWCP | 100 | 118 | 78 | 89 | 84 | 87 |  |  |  |  |  |  |  |  | 
11 | PWSPIDIHHLSCPNN | 76 | 104 | 62 |  |  |  | 75 | 91 | 93 |  |  |  |  |  | 
12 | YRWLRTVKTTKESLV | 68 | 117 | 46 |  |  |  | 70 | 58 | 69 |  |  |  |  |  | 
13 | PDYRWLRTVKTTKES | 83 | 85 | 76 |  |  |  | 72 | 90 | 79 |  |  |  |  |  | 
14 | YPDYRWLRTVKTTKE | 88 | 97 | 72 |  |  |  | 73 | 92 | 88 |  |  |  |  |  | 
15 | GFSYMELKVGYILAI | 91 | 111 | 65 |  |  |  | 57 | 71 | 77 |  |  |  |  |  | 
16 | PDVHNQVSGVDLGLP |  |  |  |  |  |  |  |  |  | 107 | 129 | 106 | 104 | 115 | 106
17 | CSGVAVSSTYCSTNH | 106 | 165 | 110 |  |  |  | 90 | 94 | 94 |  |  |  |  |  | 
18 | QLVNLHDFRSDEIEH | 89 | 113 | 60 | 44 | 66 | 47 |  |  |  |  |  |  |  |  | 
19 | ERGLYKSLKGACKLK | 101 | 118 | 90 | 72 | 104 | 100 |  |  |  |  |  |  |  |  | 
20 | AVSSTYCSTNHDYTI | 102 | 105 | 71 |  |  |  | 79 | 91 | 129 |  |  |  |  |  | 
21 | RVFPSGKCSGVAVSS | 58 | 110 | 69 |  |  |  | 89 | 43 | 75 |  |  |  |  |  | 
22 | EECLDALESIMTTKS | 98 | 120 | 82 | 70 | 105 | 105 |  |  |  |  |  |  |  |  | 
23 | HNPYPDYRWLRTVKT | 98 | 108 | 86 |  |  |  | 69 | 65 | 85 |  |  |  |  |  | 
24 | TEAENYTNFVGYVTT | 86 | 84 | 68 |  |  |  | 60 | 76 | 75 |  |  |  |  |  | 
25 | FTNSRGKRASKGSET | 90 | 111 | 83 |  |  |  | 82 | 88 | 89 |  |  |  |  |  | 
26 | FVGYVTTTFKRKHFR | 79 | 111 | 70 |  |  |  | 82 | 102 | 117 |  |  |  |  |  | 
27 | SLHNPYPDYRWLRTV | 87 | 111 | 78 |  |  |  | 90 | 99 | 104 |  |  |  |  |  | 
28 | IKMNGFTCTGVVTEA | 88 | 108 | 68 |  |  |  | 86 | 99 | 93 |  |  |  |  |  | 
29 | EDEGCTNLSGFSYME | 65 | 90 | 54 |  |  |  | 68 | 54 | 76 |  |  |  |  |  | 
30 | AYTIFNKTLMEADAH | 98 | 121 | 86 | 78 | 97 | 118 |  |  |  |  |  |  |  |  | 
